From a melting point compilation (Tetko et al.; mined from patent text by program, amines drawn as free bases though some values may be those of a salt)

SMILES	melting point [°C]
Cc1c(F)c(NCc2ccccc2)cc2oc(=O)[nH]c12	204 to 206
Cc1c(-c2ccc(O)cc2)n(Cc2ccc(C#CCN3CCCC3)cc2)c2ccc(O)cc12	174 to 176
N#CCc1cccc(CO)c1[N+](=O)[O-]	60 to 62
COC(=O)c1cnc(C(=O)OC)c(SCc2cccc(C(F)(F)F)c2)c1	102 to 106
CC(=O)c1ccc(C(C)=O)s1	171 to 173
Cc1cc(SCc2sc(-c3ccc(C(F)(F)F)cc3)nc2C)c2c(c1OCC(=O)O)CCC2	184
CC(C)Cn1c(CNC(=O)OC(C)(C)C)c(-c2cccs2)c2cc(C(=O)O)ccc2c1=O	224 to 226
CC(C)(C)OC(=O)N[C@@H](C(=O)O)C1(C)CCCCC1	127 to 130
CCCC(NOCC)=C1C(=O)CC(C2=C(C)CCCC2(C)C)C(C(=O)OC)C1=O (stereo not given)	70
COc1ccc(C(O)Cc2ccncc2)c2c1OCC2C (stereo not given)	96 to 100
CN(c1cccc2c(F)c(C3=NCC(CC(N)=O)S3)[nH]c12)S(=O)(=O)c1cccs1 (stereo not given)	204 to 205
CS(=O)(=O)c1ccc(-c2[nH]c3ccccc3c2-c2ccc(F)cc2)cc1	224 to 226
CCCCc1nc2c(N)nc3ccc(O)cc3c2n1CCCCNS(C)(=O)=O	223 to 227
ON=Cc1cc(Cl)ccc1O	125 to 126
Cc1ccc(S(=O)(=O)N(Cc2ccc(C#N)cc2F)C2CCC2)cc1	146 to 147
C#CC1(O)CCC2(C)C(CCC3C2CCC2(C)C(C(=O)CSCCO)CCC32)C1 (stereo not given)	122 to 126
COc1cccc(CNC(=O)[C@@H]2CCCN(c3cccc4c3C(=O)N(Cc3ccncc3)C4=O)C2)c1OC	199 to 200
O=C(C=Cc1ccc(Cl)cc1)C1(Cl)CC1	92
C=CCN(CC=C)C(=O)n1cnc(S(=O)C(C)C)n1 (stereo not given)	32 to 34
CCOC(=O)c1cc(-n2c(-c3ccccc3)cc3c2CCc2ccccc2-3)ccc1O	134 to 135
CCc1nc2ccc(Cc3ccc(C(=O)NO)cc3)cc2c(=O)n1CCc1ccccc1	181 to 183
CC(C)(C)n1nnc(NC(=O)C2c3ccccc3Oc3ccccc32)n1	230 to 231
CN1CC(O)N(c2nnc(SCc3cccs3)s2)C1=O (stereo not given)	129 to 132
O=C(Nc1cc(Cl)cc2c(Cl)ccnc12)c1c(Cl)cccc1Cl	201 to 205
CCc1cc(=O)c2ccc(O)cc2o1	189

SMILES	melting point [°C]
CCOC(=O)c1c[nH]c2cc(C)cc(O)c12	152 to 154
O=C(O)C1Cc2c(c(Cl)cc3c(-c4ccccc4Cl)noc23)O1 (stereo not given)	220 to 222
C=Cc1cnc(NC(=O)C(C)C)nc1	110 to 112
CCCN(C(C)=O)c1ccc(C(=O)N2CCN(CCc3ccc(Cl)cc3)CC2)cc1	112 to 113
c1ccc2c(c1)ncc1nc(C3CCC3)[nH]c12	191 to 192
Clc1ccc2nc(Cl)c3nnc(-c4ccccc4)n3c2c1	305 to 307
COC(=O)CN1C(=O)c2ccc3ccccc3c2S1(=O)=O	188
COc1ccc(C(=O)c2ccnn2Cc2ccccc2)c(Cl)c1Cl	102 to 105
CCOC(=O)N1C=CC(c2c(-c3ccccc3)nn3ccccc23)C(Cl)=N1 (stereo not given)	130 to 132
Cc1cc(Cc2ccccc2)nc(Nc2ccc(-n3ccnc3CO)cc2)n1	95 to 98
Cc1oc(-c2ccccc2)nc1COc1ccc(COc2cncc(CC(=O)O)c2)cc1	139 to 140
CC(C)c1ccc(OCCCN2CCN(c3ccc(Cl)nn3)CC2)cc1	125 to 127
CC(=O)Nc1ncc(Cc2ccc(Cl)cc2)c(NC(C)=O)n1	147
COC(=O)C1(Cl)C[C@H](OC(C)=O)[C@@H](NC(C)=O)[C@H]([C@H](OC(C)=O)[C@@H](COC(C)=O)OC(C)=O)O1 (stereo not given in full)	116 to 118
COc1ccc(CN(C(=O)C2CCCc3ccc(OC)cc32)c2ccc(OC)cc2)cc1 (stereo not given)	89 to 90
COc1cc2cc(-c3ccc(=O)[nH]n3)sc2cc1OC	> 300
COC(=O)c1cn2c(n1)COc1cc(C)ccc1-2	180 to 181
CC(C)(C)OC(=O)NC(COCc1ccccc1)C(=O)N1CCOCC1 (stereo not given)	87 to 88
CC(C)CC(=O)Oc1ccc2cc(C(=N)N)ccc2c1	250 to 252
CC(=O)NCCCc1ccc(CN2CCN(c3ccccc3)CC2)cc1	117 to 118
COc1c(C(C)(C)C)cc(SC)cc1C(C)(C)C	50 to 52
CCOC(=O)c1nc2ccccn2c1S(N)(=O)=O	166 to 168
Nc1nc(-c2ccc(CCN3CCN(c4cccc5cc(Cl)ccc45)CC3)cc2)cs1	210 to 215
CC(C)(C)OC(=O)CNc1ccccc1C(=O)c1ccccc1	88
O=C1COc2ccc(C3=Cc4ccc(NCCO)cc4SC3c3ccccc3)cc2N1 (stereo not given)	201 to 202

SMILES	melting point [°C]
Cc1cc(SC2=C(O)CC(CCc3ccc(O)cc3)(CCc3ccc(O)cc3)OC2=O)c(C(C)(C)C)cc1OS(=O)(=O)N(C)C	139
Cc1ccc(-c2nc3cccnc3n2CC(N)=O)s1	> 250
Cc1cc(C#N)c(C)c(C(=O)Nc2ccc(F)cn2)n1	196
CN(O)C(=O)Nc1c(C(=O)c2cccc(Cl)c2)[nH]c2cc(Cl)ccc12	205 to 206
CCOc1ccc2[nH]c(=O)n(CCN3CCOCC3)c2c1	107
COc1cc(C(=O)c2ncc3ccc(C(N)=O)cn23)ccc1[N+](=O)[O-]	289
CSc1cc(C(=O)CBr)ccc1C	85 to 86
NC(=O)N(O)CC(=O)N(Cc1cccs1)c1ccc(Br)cc1	76 to 79.5
COc1ccc(-c2nc(S(=O)(=O)CC(F)(F)F)[nH]c2-c2ccc(OC)cc2)cc1	173 to 174
O=C1CC(=O)c2cc(OCCCOc3ccccc3)ccc21	91 to 94
Nc1nc2c(ncn2Cc2ccccc2)c(=O)[nH]1	305 to 308
CC(=O)OC1CCCC(n2cnc3cc(Cl)c(Cl)cc32)C1OC(C)=O (stereo not given)	163 to 165
CC1(c2ccccc2)SC(=Nc2ccc(Cl)cc2)N(Nc2ccccc2)C1=O (stereo not given)	53 to 54
N#Cc1cccc(C2=Nc3ccc(CCc4ccccc4)cc3NC(=O)C2)c1	212 to 214
COc1ccc(C(=O)CCC#N)cc1	94
Cc1cc(Oc2ncc(C(F)(F)F)cc2Cl)nn1C(N)=O	101 to 104
CCCC(=O)Nc1cc(NC(=O)CCC)c2ccc(C)nc2c1OC(=O)CCC	195 to 200
CC(=O)OCCCN1CCC(CNC(=O)[C@@H]2CCCN2S(=O)(=O)c2ccc(Cl)c(COc3cccc4c(-n5ccnc5)cc(C)nc34)c2Cl)CC1	96
Cc1c(C#N)cc(C(C)(C)C)c(O)c1C(=O)Nc1ccc(S(=O)c2ccc(Br)cc2)cc1C(F)(F)F (stereo not given)	178 to 180
C/C(=C\c1ccc(OC(C)C)cc1Oc1ncc(C(F)(F)F)cc1Cl)C(=O)O	114
COc1ccccc1N1CCCN(c2ccnc3sc(C(N)=O)c(N)c23)CC1	179 to 184
COc1cc(OC)c2c(=O)[nH]c(-c3cc(C)c(OCCN4CCOCC4)c(C)c3)cc2c1	196 to 198
CC(S)CNC(=O)OCc1ccc([N+](=O)[O-])cc1 (stereo not given)	54 to 56.5
CCOC(=O)Cn1cnc2c(N3CCOCC3)nc(NC(=O)C3CCCCC3)nc21	142 to 147
CN1CCN(c2nc(=NC(=O)NC(C)(C)C)ss2)CC1	169 to 172

SMILES	melting point [°C]
O=S(=O)(CCl)N(Cc1cccnc1)C1CCCCC1	67 to 72
CC(C)(O)c1ccc(CNC(=O)c2cccnc2Oc2cccc(F)c2)cc1	106 to 108
COC(=O)c1csc(NC(=O)[C@H](CC2CCCC2)c2ccc(Cl)c(Cl)c2)n1	143 to 144
CN(C)C1(c2ccccc2)CCC(CNC(=O)N2CCC(c3c[nH]c4ccccc34)C2)CC1 (stereo not given)	103 to 106
CNc1cc(S(=O)(=O)c2cccc(C(F)(F)F)c2)cc(Br)n1	115 to 117
CC12CCC(CC1=C=C1C=CC(Nc3nc(Cl)nc(Cl)n3)=CC1)C2(C)C (stereo not given)	238
Cc1cc(Nc2ccc(S(F)(F)(F)(F)F)cc2)c(S(C)(=O)=O)cc1C(=O)O	106 to 109
Cc1ccc(C2c3c(C)c(Br)c(C)c(C4OCCO4)c3OC2(C)C)cc1 (stereo not given)	169 to 172
COC(=O)C1N2C(=O)C(NC(=O)COc3ccccc3)C2SCC1(C)Nc1ccccc1 (stereo not given)	129 to 130
COC(=O)c1ccc(C)nc1Oc1nc(OC)cc(OC)n1	99 to 103
CN1Cc2c(-c3noc(C4CC4)n3)ncn2-c2cccc(Cl)c2C1=O	165 to 169
CCOC(=O)NNC=Nc1nc(-c2ccc3c(c2)CCCC3)cs1	134 to 135
NS(=O)(=O)c1cc(C(=O)O)cc(NCc2ccco2)c1Oc1ccccc1	219 to 220
CCc1nc2cc(C(F)(F)F)c(Cl)cc2n1-c1ccc(CCOC(=O)NS(=O)(=O)c2cn(C)c(C)n2)cc1	221
O=C(Nc1cc2nc(-c3ccc(C(=O)C45CC6CC(CC(C6)C4)C5)cc3)[nH]c2cn1)c1ccccn1	305
CC(C)Oc1ccc(NC(=O)OCc2cc3cc(-c4ccc(F)cc4)ccc3o2)c(C(=O)O)c1	195 to 196
CC1(C)C[C@H]2c3cccc4c3N(CCNC4)[C@H]2C1	155 to 157
CCS(=O)(=O)Oc1ccccc1S(N)(=O)=O	90 to 92.5
CCOC(=O)c1c(C)c(C(=O)CC#N)n(C)c1C	105
N#CN=C(Nc1cccnc1)NC1CCCCC1	185 to 186
CC(C)COC(=O)C(C#N)=CNCc1ccco1	85 to 87
CCCN(C1=C(O)CC(C2CCCC2)(C2CCCC2)OC1=O)c1cccc(N)c1	173 to 175
CCOC(=O)C(NC=O)=C(c1ccc(F)cc1)c1ccc(F)cc1	174 to 176
CC(C)(O)CNc1c([N+](=O)[O-])cnc2cccnc12	184 to 186
COc1cc2nc(N3CCN(C(=O)CC(C)O)CC3)nc(N)c2cc1OC (stereo not given)	220 to 222
